Assay [1] relates to Candida albicans. Particulars: oral isolate of Candida albicans to human buccal epithelial cells; concentration dependent; cited from earlier work.
The test system of assay [2] is E. coli. Particulars: urine isolate of E. coli to human uroepithelial cells; concentration dependent; cited from earlier work.
The subject of assay [3] is blood. Kind of assay: Clotting of pig blood in containers holding taurolidine solution with or without ACD-A (Example 1). The settings on record: pig blood filled up to 30 mL over 5, 10 or 15 mL 0.5% taurolidine in Ringer-lactate, or 5 mL taurolidine solution plus 2 mL ACD-A; inspected after 30 minutes. On the procedure:
A 0.5% solution of taurolidine in Ringer-lactate solution (Thomae, Biberach, Germany) was introduced into each of four polyethylene bottles having a 30 mL volume. Filling volumes were 5, 10, and 15 mL. One bottle was filled with 5 mL of the taurolidine solution and 2 mL ACD-A (Fresenius, Bad Homburg, Germany) solution. ACD-A solution is used for the conservation of whole blood and contains per liter: 22.0 grams of sodium citrate dihydrate, 7.3 grams of citric acid and 34.5 grams of glucose monohydrate.
Blood was collected at a slaughter house from a female pig directly from the slaughter wound into the containers that were then filled up to the 30 mL level. The containers were capped and gently moved to mix blood with the solution. The containers were inspected after 30 minutes. Blood in the containers containing only taurolidine was clotted, but the blood in the container containing the mixture of taurolidine and ACD-A was not clotted.

Assay [4] deals with Candida albicans. As to the kind of experiment: Inoculated DIALOCK port/catheter filled with lock solution, flush cultured on blood agar (Example 7). It counts as cell-based. Also on record: key to organisms remaining, DIALOCK port flush: TNTC: Too numerous to count. The settings on record: inoculum 5 cfu/0.1 mL; 2% citrated taurolidine or 5000 U/mL heparin (with preservative); 37° C. for 72 hours. On the procedure:
(§1) Clinical blood isolates of coagulase negative staphylococcus, Candida albicans, Staphylococcus aureus, Enterococcus, and Pseudomonas aeruginosa were inoculated into trypticase soy broth and allowed to incubate at 37° C. until the cultures were visibly turbid. Serial dilutions were made to obtain a final cell density of 10 colony forming units (cfu)/0.1 mL for S. aureus, Enterococcus, and Pseudomonas aeruginosa; 5 cfu/0.1 mL for Candida; 100 cfu/0.1 mL for coagulase negative staph. and Enterobacter. From the final dilution, 0.1 mL was instilled into each distal end of a DIALOCK port tube, and the DIALOCK port was incubated at room temperature overnight. After incubation, a regular silicon catheter was placed on the distal end of both sides of each DIALOCK port. A solution of 5000 U/mL of heparin (with preservative) or 2% citrated taurolidine was instilled through the proximal end of the DIALOCK port to fill the DIALOCK port and catheter. The catheter was clamped and the DIALOCK port/catheter was incubated at 37° C. for 72 hours. Following this incubation, both catheters were removed from each DIALOCK port and each was flushed with 0.1 mL of nutrient broth.

The test system of assay [5] is coagulase negative staphylococcus. Described as above. In kind it is cell-based. Also on record: key to organisms remaining, DIALOCK port flush: TNTC: Too numerous to count. Particulars: inoculum 100 cfu/0.1 mL; 2% citrated taurolidine or 5000 U/mL heparin (with preservative); 37° C. for 72 hours. The procedure:
as §1

The test system of assay [6] is Enterobacter. The description is as above. It counts as cell-based. The settings on record: inoculum 100 cfu/0.1 mL; 2% citrated taurolidine or 5000 U/mL heparin (with preservative); 37° C. for 72 hours. Also on record: key: TNTC: Too numerous to count. The procedure: as §1
The subject of assay [7] is Enterococcus. The description is as above. It counts as cell-based. Details: key: TNTC: Too numerous to count. Particulars: inoculum 10 cfu/0.1 mL; 2% citrated taurolidine or 5000 U/mL heparin (with preservative); 37° C. for 72 hours. The procedure:
as §1

Assay [8] has as its system Pseudomonas aeruginosa. Described as above. It counts as cell-based. Also on record: key: TNTC: Too numerous to count. The settings on record: inoculum 10 cfu/0.1 mL; 2% citrated taurolidine or 5000 U/mL heparin (with preservative); 37° C. for 72 hours. On the procedure:
as §1

In assay [9] the test system is Staphylococcus aureus. The assay is described as above. It counts as cell-based. Particulars: inoculum 10 cfu/0.1 mL; 2% citrated taurolidine or 5000 U/mL heparin (with preservative); 37° C. for 72 hours. Also on record: key: TNTC: Too numerous to count. The procedure: as §1
For assay [10], the system named is E. coli. Particulars: mice, intravenous 0.2 mL of a 20% solution in sterile 5% polyvinyl pyrrolidone; intraperitoneal E. coli; cited from earlier work.
Assay [11] concerns B. fragilis. Particulars: mice, intravenous 0.2 mL of a 20% solution in sterile 5% polyvinyl pyrrolidone; intraperitoneal B. fragilis; cited from earlier work.
The test system of assay [12] is Vancomycin-Internediate Susceptibility Staphylococcus A ureus (VISA) and Methicillin-Resistant Staphylococcus Aureus (MRSA). The settings on record: range of from pH 7.0 to pH 5.0; cited from earlier work.
The conditions of assay [13]: clinical, bacteriologic outcomes, endotoxemia, organ failure, 28-day mortality rate as end points; cited from earlier work.
The subject of assay [14] is S. epidermis. Particulars: cited from earlier work.

With povidone-iodine, the microbial anti-adherence activity entry in [1] and in [2] was “significant anti-adherence activity” each time.
Consider `O=S1(=O)CCN(CN2CCS(=O)(=O)NC2)CN1` [taurolidine, bis-(1,1-dioxo-perhydroxy-1,2,4-thiadiazin-4-yl)methane], for which the “state of blood in the containers” value in [3] is on record as “clotted”. The “organisms remaining, Catheter flush” value in [4] is recorded as “No growth*”; in assay [5], “No growth”; in assay [6] it was “No growth”; in assay [7], “No growth”; in assay [8], “No growth**”; in [9] it was “No growth”. In addition, the “organisms remaining, DIALOCK port flush” value in assay [4], in assay [5], in assay [6], in [7], in assay [8] and in assay [9] was “No growth” in each case. Further, the microbial anti-adherence activity entry in [1] and in assay [2] was “significant anti-adherence activity” in each case. Also, the mortality rate result in [10] and in assay [11] was “very significantly reduce the mortality rate” throughout. In [12], the “taurolidine activity versus pH” value is reported as “increases with decreasing pH”. In addition, the “therapeutic effect on the outcome of patients with sepsis syndrome” value in [13] was “no beneficial therapeutic effect”.
As to `O=C([O-])CN(CCN(CC(=O)[O-])CC(=O)O)CC(=O)O.[Na+].[Na+]` [disodium EDTA], the “concentration shown to be bactericidal” value in assay [14] (initial inoculum of 10^3 CFU of staphylococci per mL, in 24 hours) was 20 mg/mL.
Regarding Heparin, the “organisms remaining, Catheter flush” value in assay [4] is recorded as 20 cfu; in assay [5], “No growth”; in assay [6], “TNTC”; in [7], “TNTC”; in assay [8], “TNTC”; in [9] it was “TNTC”. Also, the “organisms remaining, DIALOCK port flush” value in assay [4], in assay [5], in assay [6], in assay [7], in assay [8] and in assay [9] was “TNTC” throughout. The “inhibition of growth of S. epidermis” value in assay [14] (isolate from the catheter of an infected patient) is given as “does not inhibit the growth”.
Take `CN[C@H](CC(C)C)C(=O)N[C@H]1C(=O)N[C@@H](CC(N)=O)C(=O)N[C@H]2C(=O)N[C@H]3C(=O)N[C@H](C(=O)N[C@H](C(=O)O)c4cc(O)cc(O)c4-c4cc3ccc4O)[C@H](O)c3ccc(c(Cl)c3)Oc3cc2cc(c3O[C@@H]2O[C@H](CO)[C@@H](O)[C@H](O)[C@H]2O[C@H]2C[C@](C)(N)[C@H](O)[C@H](C)O2)Oc2ccc(cc2Cl)[C@H]1O` [Vancomycin]: the “dose found to be bactericidal” value in [14] (initial inocula of 10^3 CFU/mL) was 6.7 µg/mL.
For the molecule `[H]/N=C(\N/C(=N/[H])NCCCCCCNC(=N)NC(=N)Nc1ccc(Cl)cc1)Nc1ccc(Cl)cc1` [chlorhexidine], the microbial anti-adherence activity entry in assay [1] and in assay [2] was “significant anti-adherence activity” in each case.

These data come from US6350251B1, “Biocidal locks” (Biolink Corporation, priority 2000, dated 2002).
